Measurements taken from ChEMBL document CHEMBL1201862, “PubChem BioAssay data set” (2004).
Active and inactive are the calls of the source.

Experiments:
[1] = molecular target: Alkaline phosphatase, placental type (Homo sapiens, UniProt P05187); assay: human placental alkaline phosphatase inhibition – biochemical, luminescence, confirmation (AID 1512); type: functional
[2] = molecular target: Intestinal-type alkaline phosphatase (Mus musculus, UniProt P24822); assay: mouse intestinal alkaline phosphatase activators, dose response, biochemical, luminescence, uHTS hits (AID 488783); type: functional
[3] = molecular target: Intestinal-type alkaline phosphatase (Homo sapiens, UniProt P09923); assay: activation of human intestinal alkaline phosphatase – biochemical, dose response (AID 488873); type: functional
[4] = molecular target: T1, Alkaline phosphatase, tissue-nonspecific isozyme (Homo sapiens, UniProt P05186); assay: potency against alkaline phosphatase TNAP – biochemical, luminescent, dose response, SAR follow-up (AID 1056)
T1 sequence (P05186 whole entry): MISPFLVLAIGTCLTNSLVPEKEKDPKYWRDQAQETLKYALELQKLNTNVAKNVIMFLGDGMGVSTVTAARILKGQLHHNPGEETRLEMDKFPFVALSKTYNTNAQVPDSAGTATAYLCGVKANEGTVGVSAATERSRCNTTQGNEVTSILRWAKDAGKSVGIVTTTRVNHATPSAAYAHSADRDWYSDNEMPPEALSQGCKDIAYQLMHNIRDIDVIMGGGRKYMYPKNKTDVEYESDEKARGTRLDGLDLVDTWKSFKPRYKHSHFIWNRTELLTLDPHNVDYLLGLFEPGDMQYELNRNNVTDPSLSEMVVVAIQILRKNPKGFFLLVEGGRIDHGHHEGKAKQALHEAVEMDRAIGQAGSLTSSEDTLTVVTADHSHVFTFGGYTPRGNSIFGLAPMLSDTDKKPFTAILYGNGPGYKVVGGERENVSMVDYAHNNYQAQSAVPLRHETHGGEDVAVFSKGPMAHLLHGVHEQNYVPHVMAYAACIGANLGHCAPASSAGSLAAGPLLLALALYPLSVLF

[5] = molecular target: T2, Rac GTPase-activating protein 1 (Homo sapiens, UniProt Q9H0H5); assay: blockers of MgcRacGAP-driven Rac1 GTP hydrolysis – biochemical, ADP Hunter fluorescence, primary and confirmatory, confirmation (AID 624330); type: functional
T2 sequence (Q9H0H5 whole entry): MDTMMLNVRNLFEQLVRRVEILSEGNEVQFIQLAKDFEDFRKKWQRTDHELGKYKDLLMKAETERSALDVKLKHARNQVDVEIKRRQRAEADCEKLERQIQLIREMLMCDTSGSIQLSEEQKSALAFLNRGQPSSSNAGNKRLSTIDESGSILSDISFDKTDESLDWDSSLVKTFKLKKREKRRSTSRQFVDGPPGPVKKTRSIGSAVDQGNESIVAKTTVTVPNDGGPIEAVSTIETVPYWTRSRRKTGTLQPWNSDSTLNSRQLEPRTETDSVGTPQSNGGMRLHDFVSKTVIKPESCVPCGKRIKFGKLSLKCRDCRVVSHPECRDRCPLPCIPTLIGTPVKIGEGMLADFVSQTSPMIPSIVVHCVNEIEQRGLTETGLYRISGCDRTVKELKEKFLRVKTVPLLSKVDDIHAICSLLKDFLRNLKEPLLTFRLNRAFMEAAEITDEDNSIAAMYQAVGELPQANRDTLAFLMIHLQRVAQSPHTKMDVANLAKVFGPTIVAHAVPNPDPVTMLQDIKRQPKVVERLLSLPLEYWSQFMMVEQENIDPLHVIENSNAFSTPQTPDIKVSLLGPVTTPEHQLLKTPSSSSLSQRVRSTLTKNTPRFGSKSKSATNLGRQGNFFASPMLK

[6] = molecular target: T1, Alkaline phosphatase, tissue-nonspecific isozyme; assay: activation of tissue-nonspecific alkaline phosphatase – biochemical, TNAP isozyme, mouse IAP uHTS hits, selectivity assay for mouse IAP activator project, dose response (AID 488880); type: functional
[7] = molecular target: T3, Troponin, cardiac muscle (Homo sapiens, UniProt P19429+P45379+P63316); assay: Fluorescence-based biochemical high throughput dose response assay for activators of the calcium sensitivity of cardiac Regulated Thin Filaments (RTF). [Related pubchem assays (depositor defined):AID493008, AID493018, AID504382, AID504383]; type: protein-complex assay
[8] = molecular target: 1-phosphatidylinositol 4,5-bisphosphate phosphodiesterase beta-3 (Homo sapiens, UniProt Q01970); assay: Fluorescence-based biochemical high throughput dose response assay to identify inhibitors of phospholipase C isozymes (PLC-B3).
[9] = molecular target: T4, Long-chain-fatty-acid--AMP ligase FadD28 (Mycobacterium tuberculosis, UniProt P9WQ59); assay: Fluorescence polarization aasay to screen for inhibitors that compete for the binding of FadD28 to a bisubstrate Measured in Biochemical System Using Plate Reader - 2147-01_Inhibitor_Dose_CherryPick_Activity.; type: functional, Mycobacterium tuberculosis H37Rv
T4 sequence (P9WQ59 whole entry): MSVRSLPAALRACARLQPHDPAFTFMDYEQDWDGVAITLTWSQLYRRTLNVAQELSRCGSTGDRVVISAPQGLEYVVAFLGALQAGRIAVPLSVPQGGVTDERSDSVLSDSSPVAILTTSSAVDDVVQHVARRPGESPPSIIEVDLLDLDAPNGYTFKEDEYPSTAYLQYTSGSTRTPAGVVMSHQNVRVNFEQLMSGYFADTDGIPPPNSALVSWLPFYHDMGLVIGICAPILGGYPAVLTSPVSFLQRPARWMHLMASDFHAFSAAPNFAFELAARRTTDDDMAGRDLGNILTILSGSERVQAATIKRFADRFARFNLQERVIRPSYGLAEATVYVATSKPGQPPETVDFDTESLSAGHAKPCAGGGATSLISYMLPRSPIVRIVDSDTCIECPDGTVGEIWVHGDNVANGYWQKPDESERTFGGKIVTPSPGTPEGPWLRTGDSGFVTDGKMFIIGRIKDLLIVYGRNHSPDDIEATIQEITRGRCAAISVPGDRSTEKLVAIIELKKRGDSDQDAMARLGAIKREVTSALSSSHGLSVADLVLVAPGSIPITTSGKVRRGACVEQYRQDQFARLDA

[10] = molecular target: Induced myeloid leukemia cell differentiation protein Mcl-1 (Homo sapiens, UniProt Q07820); type: functional
[11] = molecular target: T3, Troponin, cardiac muscle; assay: compounds desensitizing RTF to calcium – biochemical, fluorescence, cardiac regulated thin filaments, triplicate IC50, dose response (AID 504742); type: protein-complex assay
[12] = molecular target: T5, Endoribonuclease toxin MazF (Escherichia coli K-12, UniProt P0AE70); assay: activation of MazEF endoribonuclease cleavage – biochemical, fluorescence, single-stranded RNA substrate, uHTS hits, dose response (AID 588481); type: functional
T5 sequence (P0AE70 whole entry): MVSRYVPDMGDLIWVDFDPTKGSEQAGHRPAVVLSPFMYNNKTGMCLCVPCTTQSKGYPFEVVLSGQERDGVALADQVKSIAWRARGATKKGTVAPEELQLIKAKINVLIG

[13] = molecular target: 1-phosphatidylinositol 4,5-bisphosphate phosphodiesterase gamma-1 (Homo sapiens, UniProt P19174); assay: Counterscreen for inhibitors of phospholipase C isozymes (PLC-B3): Fluorescence-based biochemical high throughput dose response assay to identify inhibitors of phospholipase C isozymes (PLC-gamma1).
[14] = molecular target: T6, Caspase-6 (Homo sapiens, UniProt P55212); assay: inhibition of CASP6 peptide cleavage – biochemical, VEID-R110 fluorescence, cherry-pick, dose response (AID 720632)
T6 sequence (P55212 whole entry): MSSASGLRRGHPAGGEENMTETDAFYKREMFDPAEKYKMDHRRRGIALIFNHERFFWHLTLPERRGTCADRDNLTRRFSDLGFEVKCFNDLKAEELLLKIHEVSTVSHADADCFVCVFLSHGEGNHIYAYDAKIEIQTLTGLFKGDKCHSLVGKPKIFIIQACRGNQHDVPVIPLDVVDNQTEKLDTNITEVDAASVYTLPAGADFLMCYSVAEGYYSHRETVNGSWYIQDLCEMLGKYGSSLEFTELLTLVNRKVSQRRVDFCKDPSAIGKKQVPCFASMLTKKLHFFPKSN

[15] = molecular target: Caspase-7 (Homo sapiens, UniProt P55210); assay: caspase-7 enzyme inhibition, selectivity check – biochemical, DEVD-R110 fluorescence, cherry-pick, selectivity assay for caspase-6 inhibitor project, dose response (AID 743295); type: functional
[16] = molecular target: T7, ORF 73 (Human herpesvirus 8, UniProt O40947); assay: KSHV LANA DNA-binding disruption – biochemical, fluorescence polarization, cherry-picked samples, dose response (AID 504725); design: species or system Human gammaherpesvirus 8;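 note: fluorescence polarization of a labeled DNA duplex reporting LANA DNA binding; potency is for inhibitors that block LANA binding to the DNA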
T7 sequence (O40947 whole entry): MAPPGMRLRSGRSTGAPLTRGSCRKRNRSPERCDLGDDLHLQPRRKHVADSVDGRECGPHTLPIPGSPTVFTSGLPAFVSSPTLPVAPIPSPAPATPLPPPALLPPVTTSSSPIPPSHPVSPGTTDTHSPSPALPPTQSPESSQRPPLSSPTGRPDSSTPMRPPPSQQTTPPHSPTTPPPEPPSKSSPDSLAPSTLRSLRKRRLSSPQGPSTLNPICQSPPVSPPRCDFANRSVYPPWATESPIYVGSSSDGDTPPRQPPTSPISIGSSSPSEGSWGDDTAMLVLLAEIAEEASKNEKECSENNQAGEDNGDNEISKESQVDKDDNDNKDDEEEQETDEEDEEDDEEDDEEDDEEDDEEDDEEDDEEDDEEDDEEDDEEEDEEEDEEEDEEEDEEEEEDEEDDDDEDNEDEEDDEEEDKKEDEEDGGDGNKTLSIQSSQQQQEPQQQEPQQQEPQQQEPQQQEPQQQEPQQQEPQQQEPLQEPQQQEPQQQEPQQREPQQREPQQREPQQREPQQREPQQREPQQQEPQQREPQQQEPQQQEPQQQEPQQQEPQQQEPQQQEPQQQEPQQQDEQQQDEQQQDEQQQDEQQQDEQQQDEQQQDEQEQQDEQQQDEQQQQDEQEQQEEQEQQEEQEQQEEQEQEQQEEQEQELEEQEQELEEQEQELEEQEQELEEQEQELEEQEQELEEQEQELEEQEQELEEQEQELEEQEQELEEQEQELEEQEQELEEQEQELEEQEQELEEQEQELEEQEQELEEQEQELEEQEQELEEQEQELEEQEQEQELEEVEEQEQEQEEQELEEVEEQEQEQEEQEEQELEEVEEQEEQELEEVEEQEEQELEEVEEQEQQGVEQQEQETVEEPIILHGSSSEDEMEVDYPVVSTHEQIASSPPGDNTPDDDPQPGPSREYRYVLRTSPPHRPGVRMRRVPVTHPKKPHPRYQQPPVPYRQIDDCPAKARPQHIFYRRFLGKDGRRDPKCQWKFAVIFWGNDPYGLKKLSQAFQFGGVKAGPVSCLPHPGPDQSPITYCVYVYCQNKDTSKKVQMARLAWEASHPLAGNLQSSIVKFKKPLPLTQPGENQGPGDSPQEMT

[17] = molecular target: Genome polyprotein (dengue virus type 2, UniProt P29990); assay: flavivirus cap methylation enzyme inhibition – biochemical, confirmation dose response, primary screen (AID 588689); type: functional
[18] = molecular target: T5, Endoribonuclease toxin MazF; assay: substrate-only fluorescence increase artefacts – biochemical, single-stranded RNase substrate, counter-screen for MazEF activator project, dose response (AID 588502); type: functional

Sequence of Alkaline phosphatase, placental type (P05187 whole entry): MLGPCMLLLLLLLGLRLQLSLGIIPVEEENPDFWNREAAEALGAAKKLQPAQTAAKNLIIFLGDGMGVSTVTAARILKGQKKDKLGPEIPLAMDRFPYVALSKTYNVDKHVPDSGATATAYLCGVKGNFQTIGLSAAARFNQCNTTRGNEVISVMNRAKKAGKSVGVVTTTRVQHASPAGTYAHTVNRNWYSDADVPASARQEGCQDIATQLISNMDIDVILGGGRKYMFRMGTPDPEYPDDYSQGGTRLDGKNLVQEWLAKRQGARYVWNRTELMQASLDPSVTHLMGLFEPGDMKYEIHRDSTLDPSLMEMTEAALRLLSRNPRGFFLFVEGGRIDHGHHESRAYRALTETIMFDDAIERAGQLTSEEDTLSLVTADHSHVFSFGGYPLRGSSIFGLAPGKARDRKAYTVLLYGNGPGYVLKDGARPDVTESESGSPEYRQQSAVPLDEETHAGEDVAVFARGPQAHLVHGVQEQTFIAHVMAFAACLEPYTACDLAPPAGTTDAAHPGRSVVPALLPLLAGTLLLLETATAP
Sequence of Intestinal-type alkaline phosphatase (Mus musculus, UniProt P24822) (P24822 whole entry): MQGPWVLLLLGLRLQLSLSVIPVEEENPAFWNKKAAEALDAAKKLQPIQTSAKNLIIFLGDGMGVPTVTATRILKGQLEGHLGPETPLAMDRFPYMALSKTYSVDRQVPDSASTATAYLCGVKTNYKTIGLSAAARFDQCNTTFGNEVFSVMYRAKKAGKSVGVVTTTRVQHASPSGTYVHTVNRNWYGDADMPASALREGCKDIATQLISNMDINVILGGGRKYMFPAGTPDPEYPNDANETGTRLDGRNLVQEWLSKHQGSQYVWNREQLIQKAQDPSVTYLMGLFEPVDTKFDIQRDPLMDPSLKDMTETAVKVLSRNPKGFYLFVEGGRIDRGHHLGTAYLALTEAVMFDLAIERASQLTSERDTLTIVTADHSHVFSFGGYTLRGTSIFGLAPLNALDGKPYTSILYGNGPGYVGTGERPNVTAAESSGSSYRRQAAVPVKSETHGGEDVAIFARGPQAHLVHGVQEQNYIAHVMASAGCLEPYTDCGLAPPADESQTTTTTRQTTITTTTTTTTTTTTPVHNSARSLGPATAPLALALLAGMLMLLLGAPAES
Sequence of 1-phosphatidylinositol 4,5-bisphosphate phosphodiesterase gamma-1 (P19174 whole entry): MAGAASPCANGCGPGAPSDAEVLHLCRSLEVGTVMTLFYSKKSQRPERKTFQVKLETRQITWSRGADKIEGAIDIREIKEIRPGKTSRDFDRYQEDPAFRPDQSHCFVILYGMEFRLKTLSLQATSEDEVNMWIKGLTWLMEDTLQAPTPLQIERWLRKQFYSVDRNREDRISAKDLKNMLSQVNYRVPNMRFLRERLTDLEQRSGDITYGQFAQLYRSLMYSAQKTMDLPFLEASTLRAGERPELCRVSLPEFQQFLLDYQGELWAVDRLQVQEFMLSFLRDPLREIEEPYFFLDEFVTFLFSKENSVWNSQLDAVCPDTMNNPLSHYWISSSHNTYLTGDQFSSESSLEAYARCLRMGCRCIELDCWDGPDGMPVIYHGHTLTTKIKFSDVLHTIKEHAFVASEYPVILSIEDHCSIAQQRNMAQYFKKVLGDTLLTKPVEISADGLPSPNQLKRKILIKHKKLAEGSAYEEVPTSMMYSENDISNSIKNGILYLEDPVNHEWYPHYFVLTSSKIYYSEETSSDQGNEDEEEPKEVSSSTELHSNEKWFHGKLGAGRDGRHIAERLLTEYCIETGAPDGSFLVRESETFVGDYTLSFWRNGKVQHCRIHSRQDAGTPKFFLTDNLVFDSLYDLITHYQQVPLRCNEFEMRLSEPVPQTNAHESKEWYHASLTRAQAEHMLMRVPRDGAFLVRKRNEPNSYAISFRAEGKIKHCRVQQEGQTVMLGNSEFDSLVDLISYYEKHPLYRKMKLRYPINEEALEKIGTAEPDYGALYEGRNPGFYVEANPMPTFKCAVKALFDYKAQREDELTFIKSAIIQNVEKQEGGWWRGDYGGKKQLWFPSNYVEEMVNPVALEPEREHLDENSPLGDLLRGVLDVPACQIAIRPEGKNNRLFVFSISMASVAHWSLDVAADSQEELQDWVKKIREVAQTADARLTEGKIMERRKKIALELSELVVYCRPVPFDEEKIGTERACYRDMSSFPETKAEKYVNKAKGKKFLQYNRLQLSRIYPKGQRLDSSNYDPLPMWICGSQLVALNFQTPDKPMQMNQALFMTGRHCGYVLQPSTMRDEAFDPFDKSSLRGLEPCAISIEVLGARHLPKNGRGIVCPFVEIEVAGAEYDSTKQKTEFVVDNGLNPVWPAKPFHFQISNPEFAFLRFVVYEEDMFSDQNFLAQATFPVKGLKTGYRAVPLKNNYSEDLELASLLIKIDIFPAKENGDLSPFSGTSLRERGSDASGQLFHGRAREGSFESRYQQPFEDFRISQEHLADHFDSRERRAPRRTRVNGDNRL
Sequence of Caspase-7 (P55210 24-198 limits assumed): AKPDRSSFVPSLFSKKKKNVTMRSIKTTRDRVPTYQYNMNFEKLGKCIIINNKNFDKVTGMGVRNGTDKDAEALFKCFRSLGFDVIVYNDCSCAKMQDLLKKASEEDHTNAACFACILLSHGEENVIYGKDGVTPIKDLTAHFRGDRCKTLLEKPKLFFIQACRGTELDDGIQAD
Sequence of Caspase-7 (P55210 207-303 limits assumed): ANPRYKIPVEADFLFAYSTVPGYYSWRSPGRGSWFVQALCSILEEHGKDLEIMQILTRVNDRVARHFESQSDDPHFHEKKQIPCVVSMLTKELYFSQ
Sequence of Genome polyprotein (P29990 2492-3391 limits assumed): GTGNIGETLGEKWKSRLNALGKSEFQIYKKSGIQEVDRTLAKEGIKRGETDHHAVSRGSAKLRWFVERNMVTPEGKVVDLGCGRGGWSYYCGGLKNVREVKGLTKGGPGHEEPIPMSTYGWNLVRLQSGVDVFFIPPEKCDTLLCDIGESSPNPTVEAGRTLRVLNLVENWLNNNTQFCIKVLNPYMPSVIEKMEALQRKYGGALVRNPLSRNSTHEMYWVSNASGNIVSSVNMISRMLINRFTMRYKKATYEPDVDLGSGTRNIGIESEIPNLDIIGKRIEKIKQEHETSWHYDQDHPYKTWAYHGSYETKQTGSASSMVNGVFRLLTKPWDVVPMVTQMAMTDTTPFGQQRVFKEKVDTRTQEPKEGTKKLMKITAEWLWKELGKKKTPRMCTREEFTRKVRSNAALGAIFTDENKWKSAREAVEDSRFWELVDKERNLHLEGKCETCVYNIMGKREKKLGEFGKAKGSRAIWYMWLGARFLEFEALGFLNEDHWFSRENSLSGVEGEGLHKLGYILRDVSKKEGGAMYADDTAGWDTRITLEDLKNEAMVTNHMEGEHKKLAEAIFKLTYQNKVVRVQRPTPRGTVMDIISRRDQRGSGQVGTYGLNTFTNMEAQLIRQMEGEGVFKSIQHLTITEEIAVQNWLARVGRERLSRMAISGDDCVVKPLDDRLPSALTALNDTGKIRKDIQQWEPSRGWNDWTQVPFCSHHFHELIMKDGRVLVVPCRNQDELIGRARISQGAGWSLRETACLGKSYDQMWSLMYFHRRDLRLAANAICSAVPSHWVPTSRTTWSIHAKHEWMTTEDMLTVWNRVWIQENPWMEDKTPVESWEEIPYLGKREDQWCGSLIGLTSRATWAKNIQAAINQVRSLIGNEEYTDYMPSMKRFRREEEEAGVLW
Sequence of 1-phosphatidylinositol 4,5-bisphosphate phosphodiesterase beta-3 (Q01970 whole entry): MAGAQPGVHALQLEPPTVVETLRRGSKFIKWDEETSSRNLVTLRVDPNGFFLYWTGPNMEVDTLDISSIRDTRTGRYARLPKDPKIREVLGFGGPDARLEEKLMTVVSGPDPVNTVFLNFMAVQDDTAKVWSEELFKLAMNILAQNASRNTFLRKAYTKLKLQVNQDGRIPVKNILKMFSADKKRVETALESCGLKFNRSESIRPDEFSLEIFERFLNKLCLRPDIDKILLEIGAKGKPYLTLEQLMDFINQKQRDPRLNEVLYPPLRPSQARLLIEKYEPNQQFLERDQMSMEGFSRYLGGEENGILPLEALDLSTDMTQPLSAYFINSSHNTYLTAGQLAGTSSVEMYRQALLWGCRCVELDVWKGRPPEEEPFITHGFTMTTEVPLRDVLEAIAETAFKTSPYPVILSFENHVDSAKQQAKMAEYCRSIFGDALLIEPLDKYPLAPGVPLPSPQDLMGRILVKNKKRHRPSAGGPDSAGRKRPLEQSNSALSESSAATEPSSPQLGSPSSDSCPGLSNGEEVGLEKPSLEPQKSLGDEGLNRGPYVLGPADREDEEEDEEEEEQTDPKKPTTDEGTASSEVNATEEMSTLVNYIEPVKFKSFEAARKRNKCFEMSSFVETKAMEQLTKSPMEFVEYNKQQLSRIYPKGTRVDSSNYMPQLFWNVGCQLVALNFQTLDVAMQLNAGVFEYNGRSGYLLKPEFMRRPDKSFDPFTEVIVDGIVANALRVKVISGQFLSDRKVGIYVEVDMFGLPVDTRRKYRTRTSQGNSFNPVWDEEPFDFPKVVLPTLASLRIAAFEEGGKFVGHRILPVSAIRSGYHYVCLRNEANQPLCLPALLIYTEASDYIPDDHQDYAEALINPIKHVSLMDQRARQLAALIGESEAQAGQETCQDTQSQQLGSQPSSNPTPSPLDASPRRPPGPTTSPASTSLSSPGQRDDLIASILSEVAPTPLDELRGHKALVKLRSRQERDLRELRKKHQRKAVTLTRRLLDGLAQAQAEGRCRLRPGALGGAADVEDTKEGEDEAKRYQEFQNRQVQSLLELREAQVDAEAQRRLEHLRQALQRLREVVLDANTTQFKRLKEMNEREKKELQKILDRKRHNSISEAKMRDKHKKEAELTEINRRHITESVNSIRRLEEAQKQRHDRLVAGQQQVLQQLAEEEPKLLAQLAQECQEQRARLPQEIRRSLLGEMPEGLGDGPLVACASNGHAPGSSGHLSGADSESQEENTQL

C=CCn1c(SCC(=O)c2ccc(O)c(O)c2)nnc1-c1cccc(OC)c1
inactive: EC50 [2] 100 µM | EC50 [3] > 100 µM
active: IC50 [1] 5.55 µM | IC50 [4] 17.4 µM | IC50 [5] 77.7 µM | EC50 [6] 68 µM

COc1ccc(C(=O)Nn2cnc3scc(-c4cccs4)c3c2=O)c(O)c1
inactive: EC50 [7] > 71.5 µM

O=c1oc2c(cc1O)oc(=O)c1cc(O)c(O)c(O)c12
active: AC50 [9] 98.7 µM | IC50 [10] > 54 µM | IC50 [11] 3.19 µM | AC50 [14] 484 nM | AC50 [15] 2.35 µM | AC50 [16] 18.9 µM | IC50 [17] > 100 µM
inactive: IC50 [8] > 123 µM | EC50 [12] 80.5 µM | IC50 [13] > 123 µM | EC50 [18] > 99 µM
